Measured values: PubChem BioAssay AID248 (DTP/NCI, 2004)
Where “and” joins values, the source holds several entries; their conditions need not be identical. Identical values can stand only once. Inconclusive results and toxic doses are left out. Cut-off read from the data, not from the text of the source: active = T/C of 150% or more; inactive = T/C below 125%.

System: L1210 leukemia ip in BDF1 mice, survival T/C
Assay: NCI In Vivo Anticancer Drug Screen. Data for tumor model L1210 Leukemia (intraperitoneal) in B6D2F1 (BDF1) mice
Conditions: endpoint: mean survival time, higher = longer survival
In short: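 Transplanted-tumor mice were given test agent; controls received vehicle only. Survival readings from the two groups were divided (treated over control).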

[1] = dose: 100.0 mg/kg/injection, schedule: Q01DX001 (ip), vehicle: saline
[2] = dose: 200.0 mg/kg/injection, schedule: Q01DX001 (ip), vehicle: saline
[3] = dose: 400.0 mg/kg/injection, schedule: Q01DX001 (ip), vehicle: saline
[4] = dose: 100.0 mg/kg/injection, schedule: Q01DX009 (ip), vehicle: saline
[5] = dose: 100.0 mg/kg/injection, schedule: Q04DX003 (ip), vehicle: saline
[6] = dose: 200.0 mg/kg/injection, schedule: Q04DX003 (ip), vehicle: saline
[7] = dose: 100.0 mg/kg/injection, schedule: Q01DX009 (ip), vehicle: saline with Tween-80
[8] = dose: 200.0 mg/kg/injection, schedule: Q01DX009 (ip), vehicle: saline with Tween-80
[9] = dose: 100.0 mg/kg/injection, schedule: Q04DX002 (ip), vehicle: Klucel (hydroxypropylcellulose) (HPC)
[10] = dose: 200.0 mg/kg/injection, schedule: Q04DX002 (ip), vehicle: Klucel (hydroxypropylcellulose) (HPC)
[11] = dose: 400.0 mg/kg/injection, schedule: Q04DX002 (ip), vehicle: Klucel (hydroxypropylcellulose) (HPC)
[12] = dose: 100.0 mg/kg/injection, schedule: Q01DX001 (ip), vehicle: carboxymethylcellulose (CMC)
[13] = dose: 200.0 mg/kg/injection, schedule: Q01DX001 (ip), vehicle: carboxymethylcellulose (CMC)
[14] = dose: 100.0 mg/kg/injection, schedule: Q01DX009 (ip), vehicle: Klucel (hydroxypropylcellulose) (HPC)
[15] = dose: 200.0 mg/kg/injection, schedule: Q01DX009 (ip), vehicle: Klucel (hydroxypropylcellulose) (HPC)
[16] = dose: 400.0 mg/kg/injection, schedule: Q01DX009 (ip), vehicle: Klucel (hydroxypropylcellulose) (HPC)

Measured: T/C

O=[N+]([O-])c1ccc2scnc2c1
inactive: dose: 100.0 mg/kg/injection, schedule: Q01DX001 (ip), vehicle: acetone 98 % of control | dose: 100.0 mg/kg/injection, schedule: Q04DX003 (ip), vehicle: acetone 107 % of control | dose: 200.0 mg/kg/injection, schedule: Q01DX001 (ip), vehicle: acetone 92 % of control | dose: 200.0 mg/kg/injection, schedule: Q04DX003 (ip), vehicle: acetone 89 % of control | dose: 400.0 mg/kg/injection, schedule: Q01DX001 (ip), vehicle: acetone 95 % of control | dose: 400.0 mg/kg/injection, schedule: Q04DX003 (ip), vehicle: acetone 96 % of control

Cc1ccc(Br)cc1Br
inactive: [1] 96 % of control | [2] 100 % of control | [3] 94 % of control

O=C1C2C(C(=O)N1c1ccc([N+](=O)[O-])cc1)C1c3ccccc3C2C2CCCCN21 (stereo not drawn)
inactive: dose: 50.0 mg/kg/injection, schedule: Q01DX009 (ip), vehicle: saline 95 % of control | dose: 50.0 mg/kg/injection, schedule: Q04DX003 (ip), vehicle: saline 104 % of control | [4] 92 % of control | [5] 97 % of control | [6] 88 % of control

CCCCCCCCCCCCCCCCSCCCCCCCCCCCCCCCC
inactive: [7] 104 % of control | [8] 98 % of control

CCCCCOC(=O)COc1ccc(Cl)cc1
inactive: [9] 98 % of control | [10] 98 % of control | [11] 103 % of control

CN(C)CCN=Cc1[nH]c(=S)[nH]c(=O)c1CCc1ccccc1
inactive: dose: 100.0 mg/kg/injection, schedule: Q01DX001 (ip), vehicle: saline with Tween-80 93 % of control | dose: 200.0 mg/kg/injection, schedule: Q01DX001 (ip), vehicle: saline with Tween-80 97 % of control | dose: 400.0 mg/kg/injection, schedule: Q01DX001 (ip), vehicle: saline with Tween-80 95 % of control

COc1ccc(OC(=O)Nc2ccc(F)cc2)cc1
inactive: dose: 50.0 mg/kg/injection, schedule: Q01DX001 (ip), vehicle: carboxymethylcellulose (CMC) 97 % of control | dose: 50.0 mg/kg/injection, schedule: Q01DX009 (ip), vehicle: carboxymethylcellulose (CMC) 93 % of control and 90 % of control | dose: 50.0 mg/kg/injection, schedule: Q04DX002 (ip), vehicle: carboxymethylcellulose (CMC) 95 % of control and 106 % of control | dose: 50.0 mg/kg/injection, schedule: Q04DX003 (ip), vehicle: carboxymethylcellulose (CMC) 101 % of control | [12] 89 % of control | dose: 100.0 mg/kg/injection, schedule: Q01DX009 (ip), vehicle: carboxymethylcellulose (CMC) 93 % of control and 103 % of control | dose: 100.0 mg/kg/injection, schedule: Q04DX002 (ip), vehicle: carboxymethylcellulose (CMC) 101 % of control and 110 % of control | dose: 100.0 mg/kg/injection, schedule: Q04DX003 (ip), vehicle: carboxymethylcellulose (CMC) 101 % of control | [13] 89 % of control | dose: 200.0 mg/kg/injection, schedule: Q01DX009 (ip), vehicle: carboxymethylcellulose (CMC) 101 % of control and 104 % of control | dose: 200.0 mg/kg/injection, schedule: Q04DX002 (ip), vehicle: carboxymethylcellulose (CMC) 96 % of control and 106 % of control | dose: 200.0 mg/kg/injection, schedule: Q04DX003 (ip), vehicle: carboxymethylcellulose (CMC) 101 % of control

CC1=CC(=O)C2COc3c2c1cc1c(C)cc(=O)n(C)c31 (stereo not drawn)
inactive: dose: 50.0 mg/kg/injection, schedule: Q04DX003 (ip), vehicle: Klucel (hydroxypropylcellulose) (HPC) 97 % of control | dose: 100.0 mg/kg/injection, schedule: Q01DX001 (ip), vehicle: Klucel (hydroxypropylcellulose) (HPC) 95 % of control | dose: 100.0 mg/kg/injection, schedule: Q04DX003 (ip), vehicle: Klucel (hydroxypropylcellulose) (HPC) 113 % of control | dose: 200.0 mg/kg/injection, schedule: Q01DX001 (ip), vehicle: Klucel (hydroxypropylcellulose) (HPC) 95 % of control | dose: 200.0 mg/kg/injection, schedule: Q04DX003 (ip), vehicle: Klucel (hydroxypropylcellulose) (HPC) 97 % of control | dose: 400.0 mg/kg/injection, schedule: Q01DX001 (ip), vehicle: Klucel (hydroxypropylcellulose) (HPC) 97 % of control

COc1cc(NC(=O)Nc2c(C)cc(I)cc2C(=O)O)c(I)cc1I
inactive: dose: 75.0 mg/kg/injection, schedule: Q01DX001 (ip), vehicle: other 87 % of control | dose: 150.0 mg/kg/injection, schedule: Q01DX001 (ip), vehicle: other 92 % of control | dose: 300.0 mg/kg/injection, schedule: Q01DX001 (ip), vehicle: other 91 % of control

CCOC(=O)CNc1cccc(Br)c1
inactive: [9] 107 % of control | [10] 100 % of control | [11] 103 % of control

OC(C1CO1)(C(F)(F)F)C(F)(F)F (stereo not drawn)
inactive: [4] 98 % of control | dose: 100.0 mg/kg/injection, schedule: Q04DX003 (ip), vehicle: saline with Tween-80 92 % of control | dose: 200.0 mg/kg/injection, schedule: Q01DX009 (ip), vehicle: saline 106 % of control | dose: 200.0 mg/kg/injection, schedule: Q04DX003 (ip), vehicle: saline with Tween-80 91 % of control | dose: 400.0 mg/kg/injection, schedule: Q04DX003 (ip), vehicle: saline with Tween-80 97 % of control

Cc1cc(O)ccc1C1=NCC(C)S1 (stereo not drawn)
inactive: dose: 100.0 mg/kg/injection, schedule: Q01DX005 (ip), vehicle: Klucel (hydroxypropylcellulose) (HPC) 87 % of control | [14] 98 % of control | [9] 100 % of control | dose: 200.0 mg/kg/injection, schedule: Q01DX005 (ip), vehicle: Klucel (hydroxypropylcellulose) (HPC) 101 % of control | [15] 109 % of control | [10] 100 % of control | dose: 400.0 mg/kg/injection, schedule: Q01DX005 (ip), vehicle: Klucel (hydroxypropylcellulose) (HPC) 90 % of control | [16] 95 % of control | [11] 107 % of control

CCCCc1c(C)[nH]c(=S)[nH]c1=O
inactive: [7] 95 % of control | [8] 100 % of control | dose: 400.0 mg/kg/injection, schedule: Q01DX009 (ip), vehicle: saline with Tween-80 91 % of control

CCN(CC)CCCC(C)Nc1cccc2c1C(=O)c1c(c(O)c3ccccc3c1O)C2=O (stereo not drawn)
inactive: dose: 25.0 mg/kg/injection, schedule: Q04DX002 (ip), vehicle: saline 93 % of control | dose: 50.0 mg/kg/injection, schedule: Q04DX002 (ip), vehicle: saline 93 % of control | dose: 100.0 mg/kg/injection, schedule: Q04DX002 (ip), vehicle: saline 93 % of control

CC(=O)On1nnc2c(Cl)c(Cl)c(Cl)c(Cl)c21
inactive: [5] 94 % of control | [6] 94 % of control | dose: 400.0 mg/kg/injection, schedule: Q04DX003 (ip), vehicle: saline 87 % of control

CN1C(=O)CC(C(=O)c2ccc(N3C(=O)C=CC3=O)cc2)(c2ccccc2)C1=O (stereo not drawn)
inactive: dose: 25.0 mg/kg/injection, schedule: Q04DX002 (ip), vehicle: saline with Tween-80 102 % of control | dose: 50.0 mg/kg/injection, schedule: Q04DX002 (ip), vehicle: saline with Tween-80 98 % of control

Cc1ccc([N+](=O)[O-])cc1NC(=O)NCc1cccnc1
inactive: [14] 95 % of control | [15] 87 % of control | [16] 92 % of control

CCOCC(=O)Cc1ccccc1
inactive: dose: 50.0 mg/kg/injection, schedule: Q01DX009 (ip), vehicle: saline with Tween-80 95 % of control | [7] 100 % of control | [8] 92 % of control

CC(=O)OC(C)CC1CCCCC12OCCO2 (stereo not drawn)
inactive: dose: 50.0 mg/kg/injection, schedule: Q01DX001 (ip), vehicle: saline 103 % of control | [1] 108 % of control | [2] 100 % of control | [3] 108 % of control

CCOC(=O)C(NC(C)=O)(C(=O)OCC)C(=O)c1ccc(Cl)cc1
inactive: [12] 89 % of control | [13] 94 % of control

OCCNC(=S)SCc1ccccc1
inactive: dose: 100.0 mg/kg/injection, schedule: Q01DX009 (sc), vehicle: olive oil, sesame oil, peanut oil 102 % of control | dose: 100.0 mg/kg/injection, schedule: Q04DX003 (sc), vehicle: olive oil, sesame oil, peanut oil 96 % of control | dose: 200.0 mg/kg/injection, schedule: Q01DX009 (sc), vehicle: olive oil, sesame oil, peanut oil 120 % of control | dose: 200.0 mg/kg/injection, schedule: Q04DX003 (sc), vehicle: olive oil, sesame oil, peanut oil 98 % of control | dose: 400.0 mg/kg/injection, schedule: Q04DX003 (sc), vehicle: olive oil, sesame oil, peanut oil 105 % of control
